Reference: article PMC8068820 (Viruses, 2021)
Entries after “also recorded” stand apart in the source; their conditions may differ.

Columns and labels:
human NTCP [1] = molecular target: T1, human NTCP (Homo sapiens, UniProt Q14973); assay: [3H]preS1 peptide; type: binding; settings: for remaining activity at 100 µM / inhibition at 100 µM: 100 µM inhibitor; for remaining activity at 100 µM: 5 nM [3H]preS1, pre-screen, read-out: remaining [3H]preS1 binding compared to untreated control; for virus/preS1 selectivity (in words): [3H]preS1 binding versus [3H]TC uptake inhibition; for [3H]preS1 binding inhibition (in words): 100 µM inhibitor where from Figure 6, SAR statements; for inhibition at 100 µM: 5 nM [3H]preS1, read-out: inhibition of [3H]preS1 peptide binding
T1 construct: expressed in transfected cells
T1 sequence (Q14973 1-349): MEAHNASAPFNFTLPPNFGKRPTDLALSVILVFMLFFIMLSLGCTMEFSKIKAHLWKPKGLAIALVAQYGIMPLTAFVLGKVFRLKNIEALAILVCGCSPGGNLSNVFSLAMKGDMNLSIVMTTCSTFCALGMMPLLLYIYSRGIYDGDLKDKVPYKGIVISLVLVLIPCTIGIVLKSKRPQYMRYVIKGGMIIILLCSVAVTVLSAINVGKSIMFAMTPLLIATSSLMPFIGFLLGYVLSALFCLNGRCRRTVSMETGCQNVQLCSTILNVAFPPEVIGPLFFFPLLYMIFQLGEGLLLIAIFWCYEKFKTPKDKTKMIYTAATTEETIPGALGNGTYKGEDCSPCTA

human NTCP [2] = molecular target: T1, human NTCP; assay: [3H]taurocholic acid ([3H]TC) transport inhibition in NTCP-HEK293 cells; type: cell-based; settings: for IC50: NTCP-HEK293 cells
NTCP-HepG2 cells = assay: MTT cytotoxicity assay in NTCP-HepG2 cells; type: cell-based, human; settings: NTCP-HepG2 cells, 5, 50 and 300 µM, 6 h incubation
HDV = assay: In vitro HDV infection of NTCP-HepG2 cells (HDAg immunostaining); type: cell-based, Hepatitis D virus; settings: 5 µM to 300 µM
[3] = 95% confidence interval, inhibition of 5 nM [3H]preS1 binding, NTCP-HEK293 cells, 10 min, 37 °C, read-out: IC50 ([3H]preS1 Binding)
[4] = 95% confidence interval, inhibition of 1 µM [3H]TC uptake, 10 min, 37 °C, read-out: IC50 ([3H]TC Uptake)
[5] = 5 nM [3H]preS1, NTCP-HEK293 cells, read-out: IC50 [3H]preS1 binding inhibition (single value)
[6] = 1 µM [3H]TC, read-out: IC50 taurocholic acid uptake inhibition (single value)

Compound | [3H]preS1 binding inhibition (in words) (human NTCP [1]) | remaining activity at 100 µM (human NTCP [1]) [%] | IC50 (human NTCP [1]; [3]) [µM] | IC50 (human NTCP [2]; [4]) [µM] | other results
O=C(Nc1ccc(Cl)cc1)c1cc(Oc2ccc(Cl)cc2)ccc1NS(=O)(=O)c1ccc(Cl)cc1 [A000028897] | – | < 50 | 3 to 24 | 16 to 62 | virus/preS1 selectivity (in words) (human NTCP [1]): more or less non-selective; Cytotoxicity (in words) (NTCP-HepG2 cells): obvious cytotoxicity even at low (5 µM) concentrations; also recorded: toxic
O[C@@H](c1ccccc1)[C@@H](c1ccccn1)[C@H](Nc1ccccn1)c1cccc(Br)c1 [A000289041] | relatively high | < 50 | 35 to 224 | > 1000 | –
O[C@H](c1ccc2ccccc2c1)[C@H](c1ccccn1)[C@@H](Nc1ccccn1)c1ccccc1 [A000294559] | significant but less potent | – | – | – | inhibition at 100 µM (human NTCP [1]): ≤ 50%
O[C@H](c1ccccc1)[C@@H](c1ccc2ccccc2n1)[C@H](Nc1ccccn1)c1ccccc1 [A000295013] | – | < 50 | 73 to 194 | > 1000 | IC50 (human NTCP [1]; [5]): ~130 µM
O[C@H](c1ccccc1)[C@@H](c1ccccn1)[C@H](Nc1ccc(F)cn1)c1ccccc1 [A000295230] | significant but less potent | – | – | – | inhibition at 100 µM (human NTCP [1]): ≤ 50%
COc1ccc([C@H](O)[C@H](c2ccccn2)[C@@H](Nc2ccccn2)c2ccccc2)cc1 [A000295231] | even further improved the inhibitory potency | < 50 | 4 to 29 | 341 to 1220 | inhibition of in vitro HDV infection (in words) (HDV): significant concentration-dependent inhibition; also recorded: active against in vitro HDV infection; IC50 (human NTCP [1]; [5]): 17 µM; virus/preS1 selectivity (in words) (human NTCP [1]): some selectivity towards the virus receptor function of NTCP; IC50 (human NTCP [2]; [6]): 780 µM
O[C@H](c1ccccc1)[C@@H](c1ccccn1)[C@H](Nc1ccccc1)c1ccccc1 [A000295238] | inactive | – | – | – | –
COc1ccc(N[C@H](c2ccccc2)[C@H](c2ccccn2)[C@H](O)c2ccccc2)nc1 [A000295480] | relatively high | < 50 | 32 to 297 | 145 to 1320 | virus/preS1 selectivity (in words) (human NTCP [1]): more or less non-selective
Nc1ccc([C@H](O)[C@H](c2ccccn2)[C@@H](Nc2ccccn2)c2ccccc2)cc1 [A000295724] | inactive | – | – | – | –
O[C@@H](c1ccccc1)[C@H](c1ccccn1)[C@@H](Nc1ccc(Cl)cn1)c1ccccc1 [A000296575] | significant but less potent | – | – | – | inhibition at 100 µM (human NTCP [1]): ≤ 50%
Oc1cccc([C@H](O)[C@H](c2ccccn2)[C@@H](Nc2ccccn2)c2ccccc2)c1 [A000296584] | significant, but less active inhibitors | – | – | – | –
O[C@@H](c1ccccc1)[C@@H](c1ccccn1)[C@H](Nc1ccccn1)c1ccsc1 [A000344053] | significant but less potent | – | – | – | inhibition at 100 µM (human NTCP [1]): ≤ 50%
O[C@@H](c1ccccc1)[C@H](c1ccccn1)[C@@H](Nc1ccccn1)c1ccccc1 [S957291] | significantly increased the inhibitory potency | – | – | – | [3H]TC uptake inhibition (in words) (human NTCP [2]; 100 µM inhibitor, Figure 6): significantly increased the inhibitory potency
O[C@H](c1ccc([C@@H](O)[C@@H](c2ccccn2)[C@H](Nc2ccccn2)c2ccccc2)cc1)[C@@H](c1ccccn1)[C@H](Nc1ccccn1)c1ccccc1 [S973509] | – | < 50 | 3 to 10 | 202 to 775 | inhibition of in vitro HDV infection (in words) (HDV): significant concentration-dependent inhibition; also recorded: active against in vitro HDV infection; IC50 (human NTCP [1]; [5]): 7 µM; virus/preS1 selectivity (in words) (human NTCP [1]): some selectivity towards the virus receptor function of NTCP; IC50 (human NTCP [2]; [6]): 490 µM
O=Cc1cccc([C@@H]([C@H](Nc2ccccn2)c2ccccc2)[C@@H](O)c2ccccc2)n1 [S985852] | – | < 50 | 8 to 24 | 13 to 34 | inhibition of in vitro HDV infection (in words) (HDV): significant concentration-dependent inhibition; also recorded: active against in vitro HDV infection; IC50 (human NTCP [1]; [5]): ~15 µM; virus/preS1 selectivity (in words) (human NTCP [1]): more or less non-selective; IC50 (human NTCP [2]; [6]): 24 µM; Cytotoxicity (in words) (NTCP-HepG2 cells): critical cytotoxicity at 300 µM

Second part, led by results:

[3H]preS1 binding inhibition (in words) (human NTCP [1]) | Compound | remaining activity at 100 µM (human NTCP [1]) [%] | IC50 (human NTCP [1]; [3]) [µM] | IC50 (human NTCP [2]; [4]) [µM] | other results
inactive | O[C@@H](c1cccnc1)[C@H](c1ccccn1)[C@@H](Nc1ccccn1)c1ccccc1 [S958009] | – | – | – | –
significant, but less active inhibitors | COc1cccc([C@H](O)[C@H](c2ccccn2)[C@@H](Nc2ccccn2)c2ccccc2)c1 [S963601] | – | – | – | –
relatively high | O[C@@H](c1ccccc1)[C@@H](c1ccccn1)[C@H](Nc1ccccn1)c1cccc2ccccc12 [S973515] | < 50 | 39 to 148 | 413 to 1240 | –
